Results on 3 compounds are retold here after PMC6736837, “^18F-labelled triazolyl-linked argininamides targeting the neuropeptide Y Y1R for PET imaging of mammary carcinoma” (Scientific Reports, 2019).

The term Ki denotes a dissociation constant, usually derived from enzyme kinetics or from competition with a known ligand. A word on the Kd: it is a measure of binding affinity in units of concentration.

“Also recorded” adds a separate entry of the source.

In one data set the target is Y1R. On the set-up: method as in PMID 28337321. Particulars: displacement of [^3H]UR-MK114, SK-N-MC neuroblastoma cells; cited from earlier work.
Data set [1] is described as follows: Octanol-water distribution coefficient logD7.4, shake flask method. Format: physicochemical. Particulars: 1-octanol/PBS, pH 7.4, PBS/1-octanol, read-out: logD7.4 experimental. As to the method: The lipophilicity of the radioligands was determined by the distribution coefficient logD7.4. The respective radioligand (10 µL, about 25 kBq) was added to a mixture of PBS (500 µL) and 1-octanol (500 µL) and the emulsion was vortexed for 1 min. After centrifugation 3 × 100 µL were taken of each layer and analysed by a γ-counter. The partition coefficient was calculated as logD7.4=log(cpmoctanol/cpmPBS) . Data were expressed as mean values ± SD from three experiments.

Data set [2] can be described thus: Binding to human plasma proteins by gel filtration. The class given is in vitro ADME. Particulars: 37 °C, read-out: Free fraction in plasma. On the procedure:
The binding of ^18F-labelled compounds to plasma proteins was determined using gel filtration columns(illustra™ MicroSpin™ G-50 Columns, GE Healthcare Life Sciences, Freiburg). An aliquot of the radiotracer (approx. 100 kBq) was added to 200 µL of saline, and 100 µL of human plasma, respectively. Both samples were incubated at 37 °C for 10 min. MicroSpin™ columns were prepared according to the user instruction. Then 25 µL of the incubated radiotracer were given onto the columns and the devices were centrifuged (2000 × g, 2 min). Eluate and solid phase were analysed in the γ-counter (Wallac Wizard). The percentage of unbound radioligand was calculated as %free=cpmsolidphase/cpmsolidphase+cpmeluate . The sample in saline was used as control.
For orientation: Size exclusion chromatography separates by hydrodynamic size, large species first.

A short description of data set [3]: Radiotracer stability in human serum by radio-HPLC. Format: in vitro ADME. Particulars: 37 °C. As to the method: The stability of ^18F-labelled compounds was determined in human serum. An aliquot of the radiotracer (5–10 MBq) was added to 200 µL human serum and incubated at 37 °C. Aliquots of 15 µL were taken after 5, 10, 15, 30, 45, 60, 120 and 180 min and quenched in 100 µL of 10% aqueous TFA. The samples were centrifuged (20000 × g, 2 min), and the supernatants were analysed by radio-HPLC (Chromolith RP-18e, 100 × 4.6 mm, 4 mL/min, 0–1 min 25% CH3CN (0.1% TFA) in water (0.1% TFA), 1–6 min 25–60%, 6–7 min 60–100%, 7–8 min 100%).

For the next data set, the system named is MCF-7-Y1 tumour slices. Kind of data set: In-vitro autoradiography on MCF-7-Y1 tumour xenograft slices. Format: binding, human. Conditions: blocking with 1 µM and 10 µM BIBP3226. On the procedure:
MCF-7-Y1 tumour bearing mice were sacrificed by cervical dislocation under deep isoflurane anesthesia and tumours were excised and subsequently frozen in a hexane/dry ice bath (−70 °C). MCF-7-Y1 tumour slices (14 µm) were prepared on a cryostat microtome HM 500 O (Microm, Walldorf) and thaw-mounted on Histobond® adhesive glass slides (Marienfeld, Lauda-Königshofen).
For autoradiography studies slides were thawed and pre-incubated for 15 min in incubation buffer (50 mM TRIS HCl, pH 7.4, containing 120 mM NaCl, 5 mM MgCl2,) at room temperature. Thereafter, 800 µL of incubation buffer, containing 0.1 MBq of the respective radiotracer were pipetted on the slide and incubated at room temperature for 60 min. For displacement studies BIBP3226 (1 µM or 10 µM) was added to the incubation buffer before pipetting on the slides. Afterwards slides were washed by placing in ice cold incubation buffer (3 × 2 min) followed by short dipping in ice cold distilled water. Slides were carefully dried in a stream of warm air and finally placed on an autoradiography film (Fuji Imaging Plate BAS-IP SR 2025 E, Fujifilm, Düsseldorf) overnight prior to readout (25 µm resolution) on the autoradiograph (HD-CR-35 Bio, Raytest, Straubenhardt) and analysis with the software AIDA (Raytest). Additional sections were stained with hematoxylin and eosin (H&E) for comparison with the autoradiography images.
A general note: In xenograft studies the graft and the host belong to different species.

Data set [4] can be described thus: Biodistribution in healthy mice. The class given is in vivo, mouse. Conditions: at 30 and 90 min p.i. As to the method:
Biodistribution studies were conducted using female NMRI outbred mice (HsdWin:NMRI) purchased from Envigo (Horst, The Netherlands). Mice were kept in groups of four to five animals in individually ventilated cages in a twelve hours dark/light cycle with unlimited access to water and standard chow. At the age of eight to nine weeks six animals per radiotracer were injected with 2–4 MBq of the respective radiotracer under isoflurane anesthesia. Mice were sacrificed by cervical dislocation 30 or 90 min p.i. of the radiotracer. Blood as well as the organs/tissues lung, liver, kidneys, heart, spleen, brain, muscle, intestines, gall bladder and bones were harvested and analysed in the γ-counter. Samples were weighed and radioactivity in different tissues was calculated as percentage of the total injected dose per gram tissue (%ID/g).

Data set [5] can be described thus: Radioactive metabolites of Y1R radioligands in mouse blood. The class given is in vivo. On the procedure: Nude mice were anesthetised with isoflurane and injected with the respective radiotracer (3–25 MBq) into the tail vein. After 5 min, animals were sacrificed by cervical dislocation and approx. 100 µL blood were collected from the abdomen and transferred into Li-heparinised Microvettes® (100 LH, Sarstedt). The same volume of aqueous urea (0.8 g/mL) was added and the Microvette® was centrifuged (2000 × g, 5 min). The supernatant was transferred to a 1.5 mL reaction vial, mixed with the same volume of 10% aqueous TFA and centrifuged (20000 × g, 5 min). This step was repeated once. A sample of the resulting supernatant (100 µL) was analysed by radio-HPLC using two methods (Chromolith RP-18e, 100 × 4.6 mm, 4 mL/min, 0–1 min 25% CH3CN (0.1%TFA) in water (0.1%TFA), 1–6 min 25–60%, 6–7 min 60–100%, 7–8 min 100%; Kromasil 100 C8 5 µm, 250 × 4.6 mm, 1.5 mL/min, 1–25 min 20–53.3% CH3CN (0.1% TFA) in water (0.1% TFA), 25–27 min 53.3–80%, 27–28 min 80–100%, 28–32 min 100%).

The subject of a further data set is MCF-7-Y1 tumours. In words: Small animal PET in MCF-7-Y1 xenografted nude mice. The class given is in vivo, mouse. Particulars: 45–60 min p.i., blocking by co-injection of BIBP3226 1 mg/kg. On the procedure:
For the NPY Y1R xenograft model, female NMRI nude mice (HsdCpb:NMRI-Foxn1^nu) were purchased from Envigo (Horst, The Netherlands) at the age of three weeks. Mice were kept in groups of four to five animals in individually ventilated cages in a twelve hours dark/light cycle with unlimited access to water and standard chow. At the age of nine to ten weeks one 17β-estradiol pellet per animal (0.72 mg per pellet, 3 mm diameter) with a 60-day release time (Innovative Research of America, Sarasota, FL, USA) was subcutaneously implanted on the back under isoflurane anesthesia. After three days, approximately 10^6 MCF-7-Y1 tumour cells (in 50 µL PBS) were mixed with Matrigel (50 µL, BD Biosciences, Heidelberg) and then injected subcutaneously at the back. Tumour diameters and weight of the animals were recorded five times a week. Imaging studies were performed four weeks after inoculation of the cells.
Small animal PET scans were performed on an Inveon™ microPET scanner (Siemens Healthcare, Erlangen) under isoflurane anesthesia (3%). Tumour bearing mice (26–35 g, n = 2–3 for each radioligand) were intravenously injected into the tail vein with the respective radiotracer (1.5–4.2 MBq in about 100 µL of saline) under isoflurane anesthesia (3–4%). Static images were acquired for 15 min starting 45 min p.i. of the radiotracer. For displacement studies, the same mice were co-injected with the radiotracer ([^18F]12 and [^18F]13 only) and BIBP3226 (1 mg/kg). Images were corrected for decay and attenuation and MAP (iterative maximum a posteriori) images were reconstructed using the built-in software of the PET scanner. Evaluation of the MAP images was conducted using the software PMOD (version 3.6, PMOD Technologies LLC, Zürich). Regions of interests (ROIs) were drawn and radioactivity concentration within these regions was obtained from the mean values and calculated as percentage of the total injected dose per gram tissue (% ID/g).

The target of a further data set is T1, hY5R (Homo sapiens, UniProt Q15761).
T1 construct: expressed in transfected cells; host or cells: HEC-1b cells (HEC-1b hY5R)
T1 sequence (Q15761 1-445): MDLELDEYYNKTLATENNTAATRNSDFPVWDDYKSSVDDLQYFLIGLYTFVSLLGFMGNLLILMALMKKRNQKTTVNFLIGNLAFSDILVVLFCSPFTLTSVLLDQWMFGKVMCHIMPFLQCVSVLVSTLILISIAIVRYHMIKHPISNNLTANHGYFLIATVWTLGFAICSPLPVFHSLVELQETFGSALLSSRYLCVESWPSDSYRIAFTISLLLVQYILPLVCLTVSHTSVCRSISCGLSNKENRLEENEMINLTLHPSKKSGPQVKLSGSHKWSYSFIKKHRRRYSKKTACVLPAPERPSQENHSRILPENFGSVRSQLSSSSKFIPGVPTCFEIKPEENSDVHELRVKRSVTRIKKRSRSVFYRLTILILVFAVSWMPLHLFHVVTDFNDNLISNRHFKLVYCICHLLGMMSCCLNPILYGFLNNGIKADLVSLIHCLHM
Conditions: read-out: Kd of the radioligand (Y5R); cited from earlier work.

For the compound `NC(N)=NCCC[C@@H](NC(=O)C(c1ccccc1)c1ccccc1)C(=O)NCc1ccc(O)cc1` [BIBP3226], the Ki at Y1R was 1.3 nM.

As for `N/C(=N/C(=O)NCc1cn(CCOCC[18F])nn1)NCCC[C@@H](NC(=O)C(c1ccccc1)c1ccccc1)C(=O)NCc1ccc(O)cc1` [[^18F]12, (2R)‐5‐{[(1Z)‐Amino({[({1‐[2‐(2‐[^18F]fluoroethoxy)ethyl]‐1H‐1,2,3‐triazol‐4‐yl}methyl)carbamoyl]-imino})methyl]amino}‐2‐(2,2‐diphenylacetamido)‐N‐[(4‐hydroxyphenyl)methyl]pentanamide], in data set [1], the logD is 1.74 ± 0.07. In addition, the fraction unbound at 10 min in data set [2] came to 0.38. Besides, the “Stability over 3 h in human serum” value in data set [3] was more than 99%. Further, in the data set on MCF-7-Y1 tumour slices, the “specific binding to MCF-7-Y1 tumour slices (autoradiography)” value is “marked specific binding; also recorded: highest specific binding to Y1R-positive cells and to tumour slices”. In data set [4], the kidney uptake entry is reported as “about three times higher”. Further, the “radiometabolites in the blood” value in [5] (mouse) is more than 90%. Besides, in [5] (mouse blood samples taken early after radiotracer injection), the “stability in the blood in vivo (in words)” value was “underwent rapid degradation in the blood”. In data set [5] (mouse, 5 min p.i.), the “intact radioligand in blood samples” value is on record as 10%. Moreover, in the data set with MCF-7-Y1 tumours, the “tumour visualisation / specific tumour accumulation in PET” value is “displaceable and thus specific Y1R-mediated tumour acculuation in vivo; also recorded: enhanced and specific tumour uptake; also recorded: highest specific binding to the Y1R-positive tumour in vivo”.

Take “[^3H]propionyl-pNPY: tritiated radioligand used for competition binding at hY2R and hY5R”: in the data set with hY5R, the Kd is 4.8 nM.
